We go through 26 compounds from ChEMBL document CHEMBL5375944, “Discovery of Potent Agonists for the Predominant Variant of the Orphan MAS-Related G Protein-Coupled Receptor X4 (MRGPRX4)” (J Med Chem, 2023).

Series [1] in a line: Agonist activity at MRGPRX4 83S in human LN229 glioblastoma cells assessed as change in intracellular calcium level by calcium mobilization assay. In kind it is cell-based.
The nature of series [2]: Agonist activity at MRGPRX4 83S (unknown origin) expressed in CHO-K1 cells assessed as induction of beta-arrestin recruitment measured after 90 mins by luminescence assay. The following applies: Homo sapiens, CHO-K1, 1.5 h. It is filed as cell-based. In general terms: Recruitment of arrestin is a read-out of receptor activation apart from second messengers.
Series [3] is described as follows: Agonist activity at MRGPRX4 83L (unknown origin) expressed in human 1321N1 glioblastoma cells assessed as change in intracellular calcium level by calcium mobilization assay. In kind it is cell-based.
Series [4] in a line: Agonist activity at MRGPRX4 83L (unknown origin) expressed in CHO cells assessed as induction of beta-arrestin recruitment measured after 90 mins by luminescence assay. It is filed as cell-based. The following applies: Homo sapiens, 1.5 h.
Series [5] in a line: Agonist activity at MRGPRX4 83L (unknown origin) expressed in HEK293 cells co-expressing Gq assessed as change in intracellular calcium level by FLIPR assay. As to conditions: Homo sapiens. In kind it is cell-based.
A short description of series [6]: Agonist activity at MRGPRX4 83S (unknown origin) expressed in HEK293 cells co-expressing Gq assessed as change in intracellular calcium level by FLIPR assay. In kind it is cell-based. The following applies: Homo sapiens.
Series [7] can be described thus: Agonist activity at MRGPRX4 83S in human LN229 glioblastoma cells assessed as change in intracellular calcium level at 10 uM by calcium mobilization assay relative to control. Background: Calcium assays in cells follow changes in intracellular calcium, usually with a dye or a luminescent sensor.
Series [8] addresses Mas-related G-protein coupled receptor member X1 (Homo sapiens, UniProt Q96LB2). Nature of the series: Agonist activity at MRGPRX1 (unknown origin) by beta-arrestin recruitment assay.
Series [9] deals with Mas-related G-protein coupled receptor member X3 (Homo sapiens, UniProt Q96LB0). Nature of the series: Agonist activity at MRGPRX3 (unknown origin) by beta-arrestin recruitment assay. It is filed as functional.
Series [10] addresses G-protein coupled receptor 143 (Homo sapiens, UniProt P51810). Kind of series: Agonist activity at GPR143 (unknown origin) by beta-arrestin recruitment assay.
Series [11] deals with LN-229. Kind of series: Cytotoxicity against human LN-229 glioblastoma cells assessed as cell viability upto 30 uM measured after 3 days by MTT assay. It is filed as toxicity, cell-based. The following applies: ln-229, 72 h, time 3 day.
A short description of series [12]: Kinetic solubility of compound in PBS at pH 7.4 incubated for 3 days. In kind it is physicochemical. As to conditions: time 3 day, read-out: Kinetic_solubility.
Series [13] in a line: Metabolic stability of the compound in human liver microsomes assessed as half life at 1 uM in presence of NADPH by LC-MS analysis. It is filed as ADME, Microsome.
Series [14] is described as follows: Agonist activity at MRGPRX4 83L (unknown origin) expressed in HEK293 cells co-expressing Galpha15 assessed as change in intracellular calcium level by FLIPR assay. As to conditions: Homo sapiens. It is filed as cell-based.
Series [15] in a line: Agonist activity at MRGPRX4 83L (unknown origin) expressed in human 1321N1 glioblastoma cells assessed as change in intracellular calcium level 10 uM by calcium mobilization assay relative to control.

The term EC50 denotes the concentration needed to bring the measured effect to its halfway point. The term half-life denotes how long it takes for the measured level to halve.

In brackets after ≈: the same amount, converted by molar mass.

Chain of Mas-related G-protein coupled receptor member X3 (Q96LB0 whole entry): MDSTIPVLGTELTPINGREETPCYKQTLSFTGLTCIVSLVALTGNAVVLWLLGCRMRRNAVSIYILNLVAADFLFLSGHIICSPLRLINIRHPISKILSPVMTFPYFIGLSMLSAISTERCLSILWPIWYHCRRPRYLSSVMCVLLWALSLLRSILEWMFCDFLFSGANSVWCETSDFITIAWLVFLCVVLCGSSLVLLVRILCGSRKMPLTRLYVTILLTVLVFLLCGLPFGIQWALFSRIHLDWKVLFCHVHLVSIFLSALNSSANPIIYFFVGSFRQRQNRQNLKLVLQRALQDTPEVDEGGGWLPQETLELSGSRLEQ
Chain of G-protein coupled receptor 143 (P51810 whole entry): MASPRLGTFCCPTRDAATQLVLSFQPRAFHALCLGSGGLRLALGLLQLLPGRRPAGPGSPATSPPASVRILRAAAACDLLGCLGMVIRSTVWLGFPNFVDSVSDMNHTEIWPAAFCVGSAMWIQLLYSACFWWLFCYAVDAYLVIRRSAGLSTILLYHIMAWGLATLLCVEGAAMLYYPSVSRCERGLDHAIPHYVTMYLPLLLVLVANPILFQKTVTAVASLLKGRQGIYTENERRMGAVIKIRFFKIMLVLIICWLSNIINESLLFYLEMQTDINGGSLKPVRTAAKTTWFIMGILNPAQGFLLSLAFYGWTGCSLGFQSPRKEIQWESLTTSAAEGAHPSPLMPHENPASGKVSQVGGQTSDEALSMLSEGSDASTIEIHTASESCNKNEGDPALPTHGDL
Chain of Mas-related G-protein coupled receptor member X1 (Q96LB2 whole entry): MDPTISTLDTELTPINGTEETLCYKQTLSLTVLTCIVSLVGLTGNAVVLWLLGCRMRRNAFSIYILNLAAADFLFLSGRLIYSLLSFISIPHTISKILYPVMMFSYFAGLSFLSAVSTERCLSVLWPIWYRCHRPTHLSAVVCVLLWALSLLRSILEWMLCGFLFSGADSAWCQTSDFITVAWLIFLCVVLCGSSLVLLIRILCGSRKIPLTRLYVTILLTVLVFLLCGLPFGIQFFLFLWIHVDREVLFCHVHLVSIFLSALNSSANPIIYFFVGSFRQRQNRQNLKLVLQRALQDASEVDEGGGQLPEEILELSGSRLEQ

As to `C#CCn1c(=O)c2[nH]c(CCc3cccc(OC)c3)nc2n(CCCO)c1=O`, the half-maximal effective concentration (EC50) in [1], in series [2], in [3] and in [4] was over 10 µM throughout.

For `C#CCn1c(=O)c2[nH]c(COc3ccccc3)nc2n(CCCCP(=O)(O)O)c1=O`, the 50% effective concentration (EC50) in series [1] is over 10 µM; in series [2], 1.85 µM; in [3] it was over 10 µM; in series [4] it was over 10 µM.

For `C#CCn1c(=O)c2c(nc(/C=C/c3cccc(OC)c3)n2C)n(CCCO)c1=O`, in series [1], the concentration for a half-maximal effect (EC50) is over 10 µM.

Take `C#CCn1c(=O)c2[nH]c(/C=C/c3cccc(OC)c3)nc2n(CCCCP(=O)(O)O)c1=O`: the EC50 is 0.0116 µM in [1], 0.2 µM in series [2], over 10 µM in series [3] and over 10 µM in series [4].

On to `CCn1c(=O)c2[nH]c(CCc3cccc(OC)c3)nc2n(CCCCP(=O)(O)O)c1=O`, for which the EC50 is 0.214 µM in series [1], 1.19 µM in [2], 3.8 µM in series [3] and over 10 µM in series [4].

As for `C#CCn1c(=O)c2c(nc(CCc3cccc(OC)c3)n2C)n(CCCOP(=O)(O)O)c1=O`, the EC50 is 0.238 µM in series [1], 0.374 µM in [2], 0.574 µM in series [3] and over 10 µM in series [4].

For the compound `C#CCn1c(=O)c2[nH]c([C@@H]3C[C@H]3c3ccccc3)nc2n(CCCCP(=O)(O)O)c1=O`, the EC50 in [1], in [2], in series [3] and in [4] was over 10 µM throughout.

Regarding `C#CCn1c(=O)c2[nH]c(CCc3cccc(OC)c3)nc2n(CCCOC(C)=O)c1=O`, the EC50 in series [1], in series [2], in series [3] and in [4] was over 10 µM throughout.

Take `CC(C)[C@H]1CC[C@H](C(=O)N[C@H](Cc2ccccc2)C(=O)O)CC1` [NATEGLINIDE]: the EC50 in series [5] was 4.72 µM; in series [6], over 10 µM; in series [1] it was over 10 µM; in [2] it was 28.4 µM; in series [3], 0.198 µM; in series [4], 4.09 µM. Moreover, in [7], the Activity is 0%.

Turning to `COc1cccc(CCc2nc3c([nH]2)c(=O)n(CC2CCC2)c(=O)n3CCCCP(=O)(O)O)c1`, the concentration for a half-maximal effect (EC50) in [1] is 0.0599 µM; in series [2], 0.0689 µM; in series [3] it was 1.6 µM; in series [4], over 10 µM.

With `C#CCn1c(=O)c2c(nc(/C=C/c3cccc(OC)c3)n2C)n(CCCOP(=O)(O)O)c1=O`, the EC50 in series [8], in [9] and in series [10] was over 10 µM each time.

Consider `C[C@]12C[C@@H]3C[C@](C)(C1)C[C@@](C(=O)N[C@H](Cc1ccccc1)C(=O)O)(C3)C2`, for which the half-maximal effective concentration (EC50) in series [5] is 0.149 µM; in [6], over 10 µM; in [1], 13.3 µM; in [2], 3.98 µM; in series [3] it was 0.00656 µM; in series [4] it was 0.548 µM.

In the case of `C#CCn1c(=O)c2[nH]c(CCc3cccc(OC)c3)nc2n(CCCCC(=O)O)c1=O`, the half-maximal effective concentration (EC50) is over 10 µM in [1], 6.72 µM in series [2], over 10 µM in [3] and over 10 µM in series [4].

For `C#CCn1c(=O)c2[nH]c(CCc3cccc(OC)c3)nc2n(CCCCP(=O)(O)O)c1=O`, the 50% effective concentration (EC50) was determined as 0.0112 µM in series [1], 0.032 µM in [2], 0.435 µM in series [3] and 5.71 µM in series [4]. Besides, in series [11], the Activity entry is “Non-Toxic”. Further, in series [12], the solubility kinetic at 72 h came out at 218 µM (≈ 100 µg/mL). Further, in [13], the half-life at 1 µM is over 4.5 h.

On to `C#CCn1c(=O)c2c(nc(C#Cc3cccc(OC)c3)n2C)n(CCCOP(=O)(O)O)c1=O`, for which the EC50 in series [1], in series [2], in [3] and in series [4] was over 10 µM in each case.

Turning to `C[C@H](CCC(=O)O)[C@H]1CC[C@H]2[C@@H]3CC[C@@H]4C[C@H](O)CC[C@]4(C)[C@H]3C[C@H](O)[C@]12C` [DEOXYCHOLIC ACID], the EC50 in series [14] worked out at 2.6 µM; in series [1], 169 µM; in series [2], 1.68 µM; in series [3] it was 11.2 µM; in series [4] it was 24.6 µM.

Take `C#CCn1c(=O)c2[nH]c(C(C)Cc3ccccc3)nc2n(CCCCP(=O)(O)O)c1=O` (configuration not stated): the concentration giving a half-maximal response (EC50) in [1] was 0.0345 µM; in series [2], 0.0277 µM; in [3], 6.17 µM; in [4], 3.94 µM.

Consider `C#CCn1c(=O)c2[nH]c(C(C)Cc3ccccc3)nc2n(CCCCP(=O)(O)OCC)c1=O` (configuration not stated), for which the 50% effective concentration (EC50) in series [1], in series [2], in series [3] and in series [4] was over 10 µM throughout.

For the compound `C#CCn1c(=O)c2c(nc(CCc3cccc(OC)c3)n2C)n(CCCCP(=O)(O)O)c1=O`, the EC50 in series [1] was found to be 0.0192 µM; in series [2], 0.03 µM; in series [3] it was 0.333 µM; in series [4] it was 6.28 µM. Besides, the Activity result in series [11] is listed as “Non-Toxic”. For the same compound, the half-life at 1 µM in [13] was over 16 h.

On to `C#CCn1c(=O)c2c(nc(-c3cccc(OC)c3)n2C)n(CCCOP(=O)(O)O)c1=O`, for which the half-maximal effective concentration (EC50) in series [1], in [2], in [3] and in series [4] was over 10 µM in each case.

On to `C#CCn1c(=O)c2[nH]c(CCc3ccccc3)nc2n(CCCCP(=O)(O)O)c1=O`, for which the concentration giving a half-maximal response (EC50) is 0.134 µM in series [1], 0.399 µM in [2], 3.25 µM in series [3] and over 10 µM in [4].

Regarding `O=C(O)[C@@H](Cc1ccccc1)NC(=O)C12CC3CC(CC(C3)C1)C2`, the EC50 in series [5] was 0.581 µM; in series [1], over 10 µM; in series [2] it was 64.1 µM; in series [3], 0.126 µM; in series [4], 6.7 µM. The Activity in series [7] was 1%.

Take `C#CCn1c(=O)c2[nH]c(CCc3cccc(OC)c3)nc2n(CCCCP(=O)(OCC)OCC)c1=O`: the EC50 in series [1], in series [2], in series [3] and in series [4] was over 10 µM each time.

Consider `C#CCn1c(=O)c2[nH]c(CCc3cccc(OC)c3)nc2n(CCCCS(=O)(=O)O)c1=O`, for which the EC50 in series [1], in [2], in series [3] and in series [4] was over 10 µM each time.

For the compound `C[C@H](CCC(=O)NCCS(=O)(=O)O)[C@H]1CC[C@H]2[C@@H]3CC[C@@H]4C[C@H](O)CC[C@]4(C)[C@H]3C[C@H](O)[C@]12C` [TAURODEOXYCHOLIC ACID], the EC50 in series [5] is 14.1 µM; in series [1], over 10 µM; in series [2], 54.5 µM; in series [3], over 10 µM; in series [4] it was 55.7 µM. For the same compound, the Activity in [7] was found to be 6%; in series [15] it was 1%.

Consider `C[C@H](CCC(=O)O)[C@H]1CC[C@H]2[C@@H]3[C@@H](O)C[C@@H]4C[C@H](O)CC[C@]4(C)[C@H]3CC[C@]12C` [URSODIOL], for which the half-maximal effective concentration (EC50) in series [14] turned out to be 4.93 µM; in series [1] it was 47.5 µM; in series [2], 3.27 µM; in [3], 41.1 µM; in series [4], 33.8 µM.
